Read-outs that look alike come from different tables or passages of the source.
Tests used:
[1] = molecular target: rEP2 receptor (UniProt Q62928); assay: Competitive binding assay of [3H]PGE2 to rEP2 receptor; conditions: [3H]-PGE2 competitive binding, membranes of transfected COS-7 cells, pH 6.0, 45 minutes at 23° C.; read-out: EP2, Ki
Procedure: (§1) Competitive Binding Assay of [^3H]PGE2 to rEP1, rEP2, rEP3 and rEP4 Receptor
(§2) Stably transfected cells expressing EP3 were grown in F-12 media (GIBCO) supplemented with 10% heat inactivated certified Fetal Bovine Serum (GIBCO) and pelleted. Prostanoid receptor EP2 or EP4 cDNA corresponding to the full-length coding sequence was subcloned into the appropriate sites of the mammalian expresson vector pcDNA 3.1(+)/Zeo (Invitrogen). Transfection-scale quantities of the vector were prepared using the Qiagen Endo-Free Plasmid Maxi Kit and transfected into COS-7 cells using FuGene 6 (Roche Molecular) according to the manufacturer's instructions (Roche). COS-7 cells were grown in DMEM (GIBCO) supplemented with 10% heat inactivated certified Fetal Bovine Serum (GIBCO) and Gentamicin (GIBCO), and were harvested 72 hours after transfection. Cells were pelleted by centrifugation, washed with PBS (GIBCO), repelleted, then flash-frozen in dry-ice/Ethanol or used directly for membrane preparation.
(§3) All procedures for membrane preparation were performed at 4° C. Prostanoid receptor-transfected COS-7 cells or stably transfected CHO cells were homogenized in assay buffers (see recipe, below) using a Polytron homogenizer (Brinkman) and centrifuged at 48,000×g for 30 minutes. Pellets were resuspended in assay buffer and resuspended by sonication using a Branson sonifier. Protein concentration was determined using the BioRad DC Protein Assay following the manufacturer's directions and stored at −80° C.
Methods for competitive affinity binding assays of EP2, EP3 and EP4 were derived from those described in M. Abramovitz et al, “The utilization of recombinant prostanoid receptors to determine the affinities and selectivities of prostaglandins and related analogs” Biochimica et Biophysica Acta 1483 (2000) 285-293. Binding assays were performed in a final incubation volume of 0.2 mL in the following assay buffers: 20 mM HEPES, 1 mM EDTA, and 10 mM MgCl2 (pH 7.4) (EP3) or 10 mM MES, 10 mM MnCl2, and 1 mM EDTA_(pH to 6.0 with NaOH) (EP2 and EP4) and radioligand {2.25 nM (EP3) or 2.5 nM (EP2) [^3H]-PGE2 (200 Ci/mmol, NEN)}. Reactions were initiated by addition of membrane protein (approximately 50 ug/reaction for EP3, 100 ug for EP2 and EP4). Dimethylsulfoxide (Sigma) concentration was kept constant at 1% (v/v) in all incubations, and compounds were assayed at final concentrations of 100 uM-0.3 nM. Non-specific binding was determined in the presence of 10 µM of non-radioactive PGE2 (Cayman Chemical). Incubations were conducted for 60 minutes at 30° C. (EP3) or 45 minutes at 23° C. (EP2 and EP4). Incubations were terminated by rapid filtration through a 96-well Unifilter GF/B (Packard) (prewetted in 10 mM MES, 0.01% BSA, pH 6.0 for EP2) at 4° C. using a Filtermate 196 96-well semi-automated cell harvester (Packard). The filters were washed with 3-4 mL of wash buffer (20 mM HEPES pH 7.4 for EP3, 10 mM MES, 0.01% BSA, pH 6.0 for EP2 and EP4), dried for at least 1 hour at room temperature, and the residual radioactivity bound to the individual filters determined by scintillation counting with addition of 37.5 uL of Microscint 20 (Packard) using a Packard TopCount Microplate Scintillation Counter. Statistics of binding were determined using Prism v 3.0 software (GraphPad).

[2] = molecular target: T1, rEP3 receptor (UniProt P34980); assay: Competitive binding assay of [3H]PGE2 to rEP3 receptor; conditions: [3H]-PGE2 competitive binding, membranes of stably transfected cells, pH 7.4, 60 minutes at 30° C.; read-out: EP3, Ki
T1 sequence (P34980 1-365): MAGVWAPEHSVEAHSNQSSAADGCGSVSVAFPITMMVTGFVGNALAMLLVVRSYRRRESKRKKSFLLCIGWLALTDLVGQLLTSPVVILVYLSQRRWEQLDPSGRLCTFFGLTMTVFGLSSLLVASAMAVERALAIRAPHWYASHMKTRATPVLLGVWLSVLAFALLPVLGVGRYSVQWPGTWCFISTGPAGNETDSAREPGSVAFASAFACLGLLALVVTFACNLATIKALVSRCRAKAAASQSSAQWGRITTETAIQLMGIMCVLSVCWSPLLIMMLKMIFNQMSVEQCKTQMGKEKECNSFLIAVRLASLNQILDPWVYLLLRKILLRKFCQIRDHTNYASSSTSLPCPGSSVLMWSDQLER
Procedure: as §1, §2, §3
Methods for competitive affinity binding assays of EP2, EP3 and EP4 were derived from those described in M. Abramovitz et al, “The utilization of recombinant prostanoid receptors to determine the affinities and selectivities of prostaglandins and related analogs” Biochimica et Biophysica Acta 1483 (2000) 285-293. Binding assays were performed in a final incubation volume of 0.2 mL in the following assay buffers: 20 mM HEPES, 1 mM EDTA, and 10 mM MgCl2 (pH 7.4) (EP3) or 10 mM MES, 10 mM MnCl2, and 1 mM EDTA_(pH to 6.0 with NaOH) (EP2 and EP4) and radioligand {2.25 nM (EP3) or 2.5 nM (EP2) [^3H]-PGE2 (200 Ci/mmol, NEN)}. […] Non-specific binding was determined in the presence of 10 µM of non-radioactive PGE2 (Cayman Chemical). […] The filters were washed with 3-4 mL of wash buffer (20 mM HEPES pH 7.4 for EP3, 10 mM MES, 0.01% BSA, pH 6.0 for EP2 and EP4), dried for at least 1 hour at room temperature, and the residual radioactivity bound to the individual filters determined by scintillation counting with addition of 37.5 uL of Microscint 20 (Packard) using a Packard TopCount Microplate Scintillation Counter. Statistics of binding were determined using Prism v 3.0 software (GraphPad).

[3] = molecular target: rEP4 receptor (UniProt P43114); assay: Competitive binding assay of [3H]PGE2 to rEP4 receptor
Procedure: as §1, §2, §3
Reactions were initiated by addition of membrane protein (approximately 50 ug/reaction for EP3, 100 ug for EP2 and EP4). Dimethylsulfoxide (Sigma) concentration was kept constant at 1% (v/v) in all incubations, and compounds were assayed at final concentrations of 100 uM-0.3 nM. Non-specific binding was determined in the presence of 10 µM of non-radioactive PGE2 (Cayman Chemical). Incubations were conducted for 60 minutes at 30° C. (EP3) or 45 minutes at 23° C. (EP2 and EP4). […] The filters were washed with 3-4 mL of wash buffer (20 mM HEPES pH 7.4 for EP3, 10 mM MES, 0.01% BSA, pH 6.0 for EP2 and EP4), dried for at least 1 hour at room temperature, and the residual radioactivity bound to the individual filters determined by scintillation counting with addition of 37.5 uL of Microscint 20 (Packard) using a Packard TopCount Microplate Scintillation Counter. Statistics of binding were determined using Prism v 3.0 software (GraphPad).

[4] = [3H]-PGE2 competitive binding, membranes of transfected COS-7 cells, pH 6.0, 45 minutes at 23° C.; read-out: EP4, Ki

SMILES	Ki [1] [nM]	Ki [2] [nM]	Ki [3, 4] [nM]	Ki ([3]; read-out: EP4, Ki; [3H]-PGE2 competitive binding, membranes of transfected COS-7 cells, pH 6.0, 45 minutes at 23° C.) [nM]
O=C(O)COCCCCN1C(=O)CC[C@@H]1/C=C/[C@@H](O)Cc1cccc(C(F)(F)F)c1 [Compound 10, (4-{(R)-2-[(S)-(E)-3-hydroxy-4-(3-trifluoromethyl-phenyl)-but-1-enyl]-5-oxo-pyrrolidin-1-yl}-butoxy)-acetic acid]	66000	> 10000	–	7
CCCCCC(O)/C=C/[C@H]1CCC(=O)N1C/C=C\COCC(=O)O (stereo partly drawn) [Compound 8, {(Z)-4-[(R)-2-((E)-3-hydroxy-oct-1-enyl)-5-oxo-pyrrolidin-1-yl]-but-2-enyloxy}-acetic acid]	> 10000	–	–	–
CCCCCC(C)(O)/C=C/[C@H]1CCC(=O)N1CCSCCCC(=O)O (stereo partly drawn) [Compound 14, 4-{2-[(R)-2-((E)-3-hydroxy-3-methyl-oct-1-enyl)-5-oxo-pyrrolidin-1-yl]-ethylsulfanyl}-butyric acid]	18000	–	90	–
CCCCC[C@H](O)/C=C/C1CCC(=O)N1OCCCCCC(=O)O (stereo partly drawn) [Compound 28, 6-[2-((S)-(E)-3-Hydroxy-oct-1-enyl)-5-oxo-pyrrolidin-1-yloxy]-hexanoic acid]	> 10000	> 10000	60	–

The next compounds have a lower Ki [1] than those just listed; values first:

Ki [1] [nM]	Ki [2] [nM]	Ki [3, 4] [nM]	SMILES	Ki ([3]; read-out: EP4, Ki; [3H]-PGE2 competitive binding, membranes of transfected COS-7 cells, pH 6.0, 45 minutes at 23° C.) [nM]
7800	49000	8	O=C(O)CCCSCCN1C(=O)CC[C@@H]1CC[C@@H](O)c1cccc(Oc2cccc(F)c2)c1 [Compound 15, 4-[2-((S)-2-{(R)-3-[3-(3-Fluoro-phenoxy)-phenyl]-3-hydroxy-propyl}-5-oxo-pyrrolidin-1-yl)-ethylsulfanyl]-butyric Acid]	–
1600	2600	5	CCCCC[C@H](O)/C=C/[C@H]1CCC(=O)N1CCSCCCC(=O)O [Compound 1, 4-[(2-{(2R)-2-[(1E,3S)-3-hydroxyoct-1-enyl]-5-oxopyrrolidin-1-yl}ethyl)thio]butanoic acid]	–
